The values below come from patent publication US7232912B2, “Indazole compounds, pharmaceutical compositions, and methods for mediating or inhibiting cell proliferation” (Agouron Pharmaceuticals, Inc., priority 2000, dated 2007).

As usually defined, the IC50 is the concentration at which inhibition is half-maximal. A word on the IC90: it is the point of the concentration-response curve where the effect stands at 90%.

One assay concerns the target T1, CDK2/cyclin A (Homo sapiens, UniProt P24941).
T1 construct: made in house; host or cells: CDK2: insect cells (baculovirus); cyclin A: E. coli
Nature of the assay: Inhibition of CDK2/Cyclin A Retinoblastoma Kinase Activity. Type of assay: biochemical. The following applies: for Ki: apparent Ki; for inhibition at 10 µM: read-out: CDK2/A % inhibition at 10 μM. As for the experimental part:
(§1) Cyclin-dependent kinase activity was measured by quantifying the enzyme-catalyzed, time-dependent incorporation of radioactive phosphate from [^32P]ATP or [^33P]ATP into a protein substrate. Unless noted otherwise, assays were performed in 96-well plates in a total volume of 50 μL, in the presence of 10 mM HEPES (N-[2-hydroxyethyl]piperazine-N′-[2-ethanesulfonic acid]) (pH 7.4), 10 mM MgCl2, 25 μM adenosine triphosphate (ATP), 1 mg/mL ovalbumin, 5 μg/mL leupeptin, 1 mM dithiothreitol, 10 mM beta-glycerophosphate, 0.1 mM sodium vanadate, 1 mM sodium fluoride, 2.5 mM ethylene glycol-bis(β-aminoethyl ethKer)-N,N,N′N′-tetraacetic acid (EGTA), 2% (v/v) dimethylsulfoxide, and 0.03–0.4 μCi [^32/33P]ATP per reaction. Reactions were initiated with appropriate enzyme, incubated at 30° C., and terminated after 20 minutes by the addition of ethylenediaminetetraacetic acid (EDTA) to 250 mM. The phosphorylated substrate was then captured on a nitrocellulose or phosphocellulose membrane using a 96-well filtration manifold, and unincorporated radioactivity was removed by repeated washing with 0.85% phosphoric acid. Radioactivity was quantified by exposing the dried membranes to a phosphorimager.
(§2) Apparent Ki values were measured by assaying enzyme activity in the presence of different inhibitor compound concentrations and subtracting the background radioactivity measured in the absence of enzyme. Inhibition data were fit to an equation for competitive inhibition using Kaleidagraph (Synergy Software), or were fit to an equation for competitive tight-binding inhibition using the software KineTic (BioKin, Ltd.).
Inhibition of CDK2/Cyclin A Retinoblastoma Kinase Activity
CDK2 was purified using published methodology (Rosenblatt et al., “Purification and Crystallization of Human Cyclin-dependent Kinase 2,” J. Mol. Biol., vol. 230, 1993, pp. 1317–1319) from insect cells that had been infected with a baculovirus expression vector. […] A complex of CDK2 and proteolyzed cyclin A was prepared and purified by gel filtration. The substrate for this assay was the same Rb substrate fragment used for the CDK4 assays, and the methodology of the CDK2/cyclin A and the CDK4/cyclin D3 assays was essentially the same, except that CDK2 was present at 150 nM or 5 nM. Ki values were measured as described above.

A further assay deals with CDK4/cyclin D3 (Homo sapiens, UniProt P11802). Nature of the assay: Inhibition of CDK4/Cyclin D Retinoblastoma Kinase Activity. Type of assay: biochemical. The following applies: for Ki: apparent Ki; for inhibition at 10 µM: read-out: CDK4/D % inhibition at 10 μM. As for the experimental part: as §1, §2
CDK4/cyclin D3, sequence (P11802 2-303 limits assumed): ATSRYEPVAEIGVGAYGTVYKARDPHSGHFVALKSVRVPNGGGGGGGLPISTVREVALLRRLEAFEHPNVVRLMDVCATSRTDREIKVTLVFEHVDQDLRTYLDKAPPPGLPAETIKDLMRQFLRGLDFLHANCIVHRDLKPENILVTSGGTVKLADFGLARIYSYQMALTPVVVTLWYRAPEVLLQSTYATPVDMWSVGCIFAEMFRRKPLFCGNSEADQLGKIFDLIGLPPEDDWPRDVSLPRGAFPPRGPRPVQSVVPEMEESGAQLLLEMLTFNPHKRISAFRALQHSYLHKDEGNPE
CDK4/cyclin D3, sequence (P30281 1-264 limits assumed, further chain): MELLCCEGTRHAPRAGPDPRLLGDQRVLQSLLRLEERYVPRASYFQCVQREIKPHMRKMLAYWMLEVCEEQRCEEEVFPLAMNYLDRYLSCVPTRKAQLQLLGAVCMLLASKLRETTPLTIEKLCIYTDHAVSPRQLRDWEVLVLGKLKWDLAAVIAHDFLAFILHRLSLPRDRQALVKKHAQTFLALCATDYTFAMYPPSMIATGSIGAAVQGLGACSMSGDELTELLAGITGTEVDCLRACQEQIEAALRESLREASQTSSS
Inhibition of CDK4/Cyclin D Retinoblastoma Kinase Activity
A complex of human CDK4 and cyclin D3, or a complex of human CDK4 and genetically truncated (1–264) cyclin D3, was purified using traditional biochemical chromatographic techniques from insect cells that had been co-infected with the corresponding baculovirus expression vectors (see e.g., Meijer and Kim, “Chemical Inhibitors of Cyclin-Dependent Kinases,” Methods in Enzymol,. vol. 283 (1997), pp. 113–128.). The enzyme complex (5 or 50 nM) was assayed with 0.3–0.5 μg of purified recombinant retinoblastoma protein fragment (Rb) as a substrate. The engineered Rb fragment (residues 386–928 of the native retinoblastoma protein; 62.3 kDa) contains the majority of the phosphorylation sites found in the native 106-kDa protein, as well as a tag of six histidine residues for ease of purification. Phosphorylated Rb substrate was captured by microfiltration on a nitrocellulose membrane and quantified using a phosphorimager as described above. For measurement of tight-binding inhibitors, the enzyme complex concentration was lowered to 5 nM, and the assay duration was extended to 60 minutes, during which the time-dependence of product formation was linear.

For another assay, the system named is HCT 116 cell line. Nature of the assay: Inhibition of Cell Growth (MTT tetrazolium salt assay). The format is cell-based. Particulars: Homo sapiens. The protocol: Inhibition of Cell Growth: Assessment of Cytotoxicity
Inhibition of cell growth was measured using the tetrazolium salt assay, which is based on the ability of viable cells to reduce 3-(4,5-dimethylthiazol-2-yl)-2,5-[2H]-diphenyltetrazolium bromide (MTT) to formazan (Mossman, Journal of Immunological Methods, vol. 65 (1983), pp. 55–58). The water-insoluble purple formazan product was then detected spectrophotometrically. The HCT 116 cell line was grown in 96-well plates. Cells were plated in the appropriate medium at a volume of 135 μl/well in McCoy's 5A Medium. Plates were incubated for four hours before addition of inhibitor compounds. Different concentrations of inhibitor compounds were added in 0.5% (v/v) dimethylsulfoxide (15 μL/well), and cells were incubated at 37° C. (5% CO2) for four to six days (depending on cell type). At the end of the incubation, MTT was added to a final concentration of 0.2 mg/mL, and cells were incubated for 4 hours more at 37° C. After centrifugation of the plates and removal of medium, the absorbance of the formazan (solubilized in dimethylsulfoxide) was measured at 540 nm. The concentration of inhibitor compound causing 50% inhibition of growth was determined from the linear portion of a semi-log plot of inhibitor concentration versus percentage inhibition. All results were compared to control cells treated only with 0.5% (v/v) dimethylsulfoxide.
Background: Formazan colour is commonly taken as a measure of viable cells.

The mark [1] stands for this setting: HCT 116, MTT, 50% inhibition of growth, read-out: HCT 116 IC50.
The mark [2] stands for this setting: HCT 116, MTT, IC90, read-out: HCT 116 IC90.

Like-named read-outs stand apart in the source and are kept apart here.

Regarding `Oc1ccc(-c2ccc3[nH]nc(-c4nc5ccccc5[nH]4)c3c2)cc1` [8′, 4-[3-(1H-Benzoimidazol-2-yl)-1H-indazol-5-yl]-phenol], the Ki was determined as 370 nM at CDK2/cyclin A and 590 nM on CDK4/cyclin D3.

In the case of `O=[N+]([O-])c1ccc2[nH]nc(-c3ccc[nH]3)c2c1` [18b′, 5-Nitro-3-(2-Pyrrolyl)-1H-indazole], the Ki on CDK2/cyclin A is 3300 nM; on CDK4/cyclin D3, 6600 nM.

Take `C(=C\c1ccc2[nH]nc(/C=C/c3ccccc3)c2c1)/c1ccccc1` [Example 2, 3,5-Distyryl-1H-Indazole]: the Ki at CDK4/cyclin D3 is 7900 nM.

As for `COc1ccc(-c2ccc3[nH]nc(-c4nc5ccccc5[nH]4)c3c2)cc1` [Example 7′, 3-(1H-Benzoimidazol-2-yl)-5-(4-methoxyphenyl)-1H-indazole], the figures for the Ki on CDK2/cyclin A and on CDK4/cyclin D3 were 790 nM and 1200 nM, respectively.

As to `COc1cccc(-c2ccc3[nH]nc(-c4nc5ccccc5[nH]4)c3c2)c1C` [Example 9′, 3-(1H-Benzoimidazol-2-yl)-5-(3-methoxy-2-methyl-phenyl)-1H-indazole], the figures for the Ki at CDK2/cyclin A and on CDK4/cyclin D3 were 670 nM and 2200 nM, respectively.

`Cc1ccccc1-c1ccc2[nH]nc(-c3ccccc3)c2c1` [Example 11, 5-(2-Methylphenyl)-3-phenyl-1H-indazole]: the Ki on CDK2/cyclin A turned out to be 2600 nM. At CDK4/cyclin D3, the inhibition at 10 µM was 39%.

For the molecule `FC(F)(F)c1ccccc1-c1ccc2[nH]nc(-c3ccccc3)c2c1` [Example 12, 3-Phenyl-5-[2-(trifluormethyl)phenyl]-1H-indazole], at CDK2/cyclin A, the Ki was 6300 nM. Besides, the “CDK4/D % inhibition at 5 μM” value on CDK4/cyclin D3 (at 5 μM) is on record as 19%.

In the case of `Cc1cc(O)ccc1-c1ccc2[nH]nc(-c3ccccc3)c2c1` [Example 13, 5-(4-Hydroxy-2-methylphenyl)-3-phenyl-1H-indazole], the Ki at CDK2/cyclin A is 2700 nM; at CDK4/cyclin D3, 3400 nM.

With `c1ccc(-c2n[nH]c3ccc(-c4ccncc4)cc23)cc1` [Example 14, 3-Phenyl-5-(Pyrid-4-yl)-1H-indazole], the results for the Ki on CDK2/cyclin A and on CDK4/cyclin D3 were 2500 nM and 2400 nM, respectively.

In the case of `c1ccc(-c2n[nH]c3ccc(-c4cccnc4)cc23)cc1` [Example 14b, 3-Phenyl-5-(pyrid-3-yl)-1H-indazole], on CDK4/cyclin D3 (read-out: CDK4/D % inhibition at 1 μM), the inhibition at 1 µM was 20%.

Take `c1c[nH]c(-c2n[nH]c3ccc(-c4ccncc4)cc23)c1` [Example 18, 5-(4Pyridyl)-3-(2-Pyrrolyl)-1H-indazole]: on CDK4/cyclin D3, the Ki turned out to be 960 nM.

In the case of `Cc1c(-c2ccc3[nH]nc(-c4nc5ccccc5[nH]4)c3c2)ccc(CCCO)c1O` [Example 26, 3-[3-(1H-Benzoimidazol-2-yl)-1H-indazol-5-yl]-6-(3-hydroxy-propyl)-2-methyl-phenol], the Ki at CDK2/cyclin A is 72 nM; at CDK4/cyclin D3 it was 83 nM. Also, in the assay on HCT 116 cell line (setting [1]), the IC50 worked out at 2.8 µM. The IC90 with HCT 116 cell line (setting [2]) stood at 5 µM.

Regarding `CC(C)(C)NCc1cccc2[nH]c(-c3n[nH]c4ccc(-c5cncc6ccccc56)cc34)nc12` [Example 39, tert-Butyl-[2-(5-isoquinolin-4-yl-1H-indazol-3-yl)-1H-benzoimidazol-4-ylmethyl]-amine], the Ki at CDK2/cyclin A is 1.1 nM; at CDK4/cyclin D3, 9 nM. The IC50 in the assay with HCT 116 cell line (setting [1]) turned out to be 0.018 µM. In addition, the IC90 in the assay on HCT 116 cell line (setting [2]) is 0.06 µM.

Take `c1ccc2c(-c3ccc4[nH]nc(-c5nc6c(Cn7ccnc7)cccc6[nH]5)c4c3)cncc2c1` [Example 40, 4-[3-(4-Imidazol-1-ylmethyl-1H-benzoimidazol-2-yl)-1H-indazol-5-yl]-isoquinoline]: the figures for the Ki at CDK2/cyclin A and at CDK4/cyclin D3 were 0.38 nM and 2.2 nM, respectively.

For the molecule `Cc1cnccc1-c1ccc2[nH]nc(/C=C/c3ccccc3)c2c1` [Example 41, 5-(3-Methyl-pyridin-4-yl)-3-(E)-styryl-1H-indazole], the Ki on CDK2/cyclin A stood at 250 nM; on CDK4/cyclin D3, 78 nM.

Consider `Oc1cc(F)cc(F)c1-c1ccc2[nH]nc(-c3nc4ccccc4[nH]3)c2c1` [Example 51], for which the Ki turned out to be 400 nM on CDK2/cyclin A and 1100 nM at CDK4/cyclin D3.

In the case of `CC(=O)Nc1cccc2c(-c3ccc4[nH]nc(-c5nc6ccccc6[nH]5)c4c3)cncc12` [Example 56, N-{4-[3-(1H-Benzoimidazol-2-yl)1H-indazol-5-yl]-isoquinolin-8-yl}-acetamide], the Ki amounted to 1 nM at CDK2/cyclin A and 36 nM at CDK4/cyclin D3. Further, the IC50 with HCT 116 cell line (setting [1]) is 0.48 µM. Further, in the assay on HCT 116 cell line (setting [2]), the IC90 amounted to 1.3 µM.

For `c1ccc(CNc2cccc3c(-c4ccc5[nH]nc(-c6nc7ccccc7[nH]6)c5c4)cncc23)cc1` [Example 57], the Ki at CDK2/cyclin A was determined as 37 nM; at CDK4/cyclin D3, 650 nM. Moreover, in the assay on HCT 116 cell line (HCT-116, read-out: HCT 116 IC50 (uM)), the IC50 came to 2 µM. In the assay on HCT 116 cell line (HCT-116, read-out: HCT 116 IC90 (uM)), the IC90 amounted to 5 µM.

As for `Cc1c(-c2ccc3[nH]nc(-c4nc5ccccc5[nH]4)c3c2)cncc1-c1ccccn1` [Example 62], the Ki at CDK2/cyclin A amounted to 3.7 nM; on CDK4/cyclin D3, 50 nM. Further, the IC50 in the assay with HCT 116 cell line (setting [1]) is 1 µM. Besides, in the assay with HCT 116 cell line (setting [2]), the IC90 amounted to 2.4 µM.

`CCNCc1cncc(-c2ccc3[nH]nc(-c4nc5c(C(=O)NC)cccc5[nH]4)c3c2)c1C` [Example 80, 2-[5-(5-Ethylaminomethyl-4-methyl-pyridin-3-yl)-1H-indazol-3-yl]-1H benzoimidazole-4carboxylic acid methylamide]: the IC90 in the assay with HCT 116 cell line (setting [2]) turned out to be 0.22 µM. Also, the Ki at CDK4/cyclin D3 is 14 nM.

Consider `CCNCc1cncc(-c2ccc3[nH]nc(-c4nc5c(NC(C)=O)cccc5[nH]4)c3c2)c1C` [Example 82, N-2-[5-(5-Ethylaminomethyl-4-methyl-pyridin-3-yl)-1H-indazol-3-yl-1 benzoimidazol-4-yl]-acetamide], for which the IC90 in the assay on HCT 116 cell line (setting [2]) is over 0.5 µM. Besides, the Ki at CDK4/cyclin D3 is 110 nM.

Take `Fc1cccc(F)c1-c1ccc2[nH]nc(-c3ccccc3)c2c1` [Example 83, 5-(2,6-Difluorophenyl)-3-Phenyl-1H-indazole]: the inhibition at 10 µM on CDK2/cyclin A and on CDK4/cyclin D3 was 30% in each case.

Regarding `c1ccc(CNc2ccc3[nH]nc(-c4ccc[nH]4)c3c2)cc1` [Example 85, 5-(Benzylamino)-3-(2-Pyrrolyl)-1H-indazole], the Ki on CDK2/cyclin A came out at 6600 nM; at CDK4/cyclin D3, 16000 nM.

Regarding `COc1cccc(-c2ccc3[nH]nc(-c4ccccc4)c3c2)c1` [Example 86, 5-(3-Methoxyphenyl)-3-(phenyl)-1H-indazole], the inhibition at 10 µM on CDK2/cyclin A was found to be 45%; on CDK4/cyclin D3 it was 18%.

As for `O=[N+]([O-])c1ccc2[nH]nc(-c3ccccc3)c2c1` [Intermediate 11a, 5-Nitro-3-phenyl-1H-indazole], on CDK2/cyclin A, the Ki was 13000 nM. Also, the inhibition at 100 µM on CDK4/cyclin D3 (read-out: CDK4/D % inhibition at 100 μM) turned out to be 48%.
